Like-named read-outs stand apart in the source and are kept apart here.
Key:
cruzain = cruzain (Trypanosoma cruzi, UniProt P25779); test: biochemical;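 for Cruzain 0’ Inhibition: at 5 µM compound concentration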;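 for Cruzain 10’ Inhibition: at 5 µM compound concentration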;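 for Cruzain Inhibition 0’: at 5 µM compound concentration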;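 for Cruzain Inhibition 10’: at 5 µM compound concentration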
Procedure, shortened: (§1)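 Recombinant enzymes assayed by Z-Phe-Arg-AMC cleavage at 25 °C, fluorescence 340/440 nm over 5–7 min, with 10 min or no enzyme–compound preincubation.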

TbrCatL = target: T1, TbrCatL (Trypanosoma brucei rhodesiense, UniProt Q95PM0); test: TbrCatL enzymatic inhibition assay (cleavage of fluorogenic substrate Z-FR-AMC); format: biochemical; conditions: for TbrCatL 0’ Inhibition / TbrCatL 10’ Inhibition: sheet "Screening results";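 for TbrCatL 0’ Inhibition: at 5 µM compound concentration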;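 for TbrCatL 10’ Inhibition: at 5 µM compound concentration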;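 for TbrCatL Inhibition 0’: at 5 µM compound concentration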;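 for TbrCatL Inhibition 10’: at 5 µM compound concentration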
T1 construct: Conor Caffrey (University of California San Diego)
Procedure, shortened: as §1

[1] = 0’ (no pre-incubation), sheet Screening results
[2] = 10’ (pre-incubation), sheet Screening results
[3] = 0’ (pre-incubation time), sheet "Screening results"
[4] = 10’ (pre-incubation time), sheet "Screening results"
[5] = 0’ (pre-incubation time), Pathogen Box screening results
[6] = 10’ (pre-incubation time), Pathogen Box screening results

T1 sequence (Q95PM0 entry or part of it): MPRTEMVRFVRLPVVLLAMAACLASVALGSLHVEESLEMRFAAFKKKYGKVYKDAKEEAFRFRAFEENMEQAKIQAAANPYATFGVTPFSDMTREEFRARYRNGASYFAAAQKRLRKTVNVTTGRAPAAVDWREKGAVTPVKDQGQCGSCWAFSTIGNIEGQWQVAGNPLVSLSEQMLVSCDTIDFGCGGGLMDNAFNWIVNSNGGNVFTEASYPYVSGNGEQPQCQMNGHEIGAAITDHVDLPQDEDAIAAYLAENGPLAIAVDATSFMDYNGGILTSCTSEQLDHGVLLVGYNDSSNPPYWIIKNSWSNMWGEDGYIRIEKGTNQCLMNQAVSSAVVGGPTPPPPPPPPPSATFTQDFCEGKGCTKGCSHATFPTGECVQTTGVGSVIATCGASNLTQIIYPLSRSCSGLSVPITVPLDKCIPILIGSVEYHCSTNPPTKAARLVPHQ
Chain of cruzain (P25779 123-337 limits assumed): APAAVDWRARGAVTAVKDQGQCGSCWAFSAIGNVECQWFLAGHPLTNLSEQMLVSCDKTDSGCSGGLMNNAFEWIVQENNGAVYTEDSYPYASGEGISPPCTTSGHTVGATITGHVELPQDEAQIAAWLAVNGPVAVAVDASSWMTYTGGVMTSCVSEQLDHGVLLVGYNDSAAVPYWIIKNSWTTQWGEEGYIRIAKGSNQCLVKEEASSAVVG

Compound	Cruzain Inhibition 0’ (cruzain; [1])	Cruzain Inhibition 10’ (cruzain; [2])	TbrCatL Inhibition 0’ (TbrCatL; [1])	TbrCatL Inhibition 10’ (TbrCatL; [2])	Cruzain 0’ Inhibition (cruzain; [3])	Cruzain 10’ Inhibition (cruzain; [4])	TbrCatL 0’ Inhibition (TbrCatL; 0’ (pre-incubation time))	TbrCatL 10’ Inhibition (TbrCatL; 10’ (pre-incubation time))	also measured
CO[C@@H](C(=O)N1Cc2[nH]nc(NC(=O)c3ccc(N4CCN(C)CC4)cc3)c2C1)c1ccccc1 [MMV676600]	24%	12%	7.5%	11%					
CNC(=O)c1nn(C)c2c1C(C)(C)Cc1cnc(Nc3ccc(N4CCN(C)CC4)cc3)nc1-2 [MMV676602]	0.9%	-6%	4%	1.5%					
C[C@H]1COC2(CCN(c3nc(=O)c4cc(C(F)(F)F)cc([N+](=O)[O-])c4s3)CC2)O1 [MMV676603]	1.3%	1.7%	4.5%	2.8%					
Cc1ncc(-c2ccnc(Nc3ccc(S(C)(=O)=O)cc3)n2)n1C(C)C [MMV676604]	22%	3.2%	3%	-26%					
CC1(O)CC(c2nc(-c3ccc4ccc(-c5ccccc5)nc4c3)c3c(N)nccn23)C1 (stereo not drawn) [MMV676605]	7.4%	-0.9%	7%	-13%					
O=C(c1ccc(NCCO)cc1)C1C[C@H]1c1ccc(Cl)cc1 (stereo partly drawn) [MMV676877]					9%	5.5%	1.1%	9%	
CCn1cnc2c(Nc3cc(F)cc(F)c3)nc(C#N)nc21 [MMV676881, reference compound]									inhibition at 5 µM (cruzain; read-out: Cruzain 0’ Inhibition, 0’ (pre-incubation time), sheet "Screening results"): 108%; inhibition at 5 µM (cruzain; read-out: Cruzain 10’ Inhibition, 10’ (pre-incubation time), sheet "Screening results"): 108%; inhibition at 5 µM (cruzain; read-out: Inhibition at 5 µM (Mean ± SEM %) Cruzain 0′, 5 µM, no pre-incubation, initial screening): 100 ± 2%; inhibition at 5 µM (cruzain; read-out: Inhibition at 5 µM (Mean ± SEM %) Cruzain 10′ inc, 5 µM, 10′ pre-incubation, initial screening): 100 ± 1%; inhibition at 5 µM (cruzain; read-out: Inhibition of cruzain or TbrCatL (either enzyme) in the initial screening, 5 µM, either cruzain or TbrCatL, with or without pre-incubation): ≥ 60%; Inhibition at 5 µM (Mean ± SEM %) TbrCatL 10′ inc (TbrCatL; 5 µM, 10′ pre-incubation, initial screening): fully inhibited; Inhibition at 5 µM (Mean ± SEM %) TbrCatL 0′ (TbrCatL; 5 µM, no pre-incubation, initial screening): fully inhibited; inhibition at 5 µM (TbrCatL; read-out: Inhibition at 5 µM (Mean ± SEM %) TbrCatL 0′): 100%; inhibition at 5 µM (TbrCatL; read-out: Inhibition at 5 µM (Mean ± SEM %) TbrCatL 10′ inc): 100 ± 2%; inhibition at 5 µM (TbrCatL; read-out: TbrCatL 0’ Inhibition): 104%; inhibition at 5 µM (TbrCatL; read-out: TbrCatL 10’ Inhibition): 103%
NC(=O)c1cc(-c2ccsc2)ccc1OCCOc1ccccc1 [MMV687138]					2.4%	4%	0.2%	-2.4%	
CCCCS(=O)(=O)Nc1ccc2cnn(C)c2c1 [MMV687145]	-4.6%	-6%	-3%	-1.9%					
Cc1cc(C)c2cc(C(=O)NC3CCCCCCC3)[nH]c2c1 [MMV687146]					4.7%	4.7%	-1.1%	-12%	
COc1ccc(Cn2cnc3c(-c4ccco4)nc(Cl)nc32)cc1 [MMV687170]					6%	7%	15%	3.4%	
O=C(C1CCN(c2cc(-n3cccc3)ncn2)CC1)N1CCc2ccccc2C1 [MMV687172]					-2.4%	-1.9%	0.3%	15%	
CCc1ccc([C@@H]2C[C@H](C(F)(F)F)n3ncc(C(=O)NCc4ccc(OC)cc4)c3N2)cc1 [MMV687180]					-9%	-7%	-4.3%	-11%	
COc1ccc2nc(C)cc(OCC(=O)Nc3ccccc3OC)c2c1 [MMV687188]					0.8%	4.7%	-0.5%	3%	
COc1ccc2nc(C)cc(OCC(=O)NCc3ccccc3)c2c1 [MMV687189]					4.5%	-1.1%	2.6%	5%	
CC(C)(C(=O)Nc1ccc(F)cc1)n1cc(-c2ccccc2F)cn1 [MMV687239]	7%	-3%	1.1%	-6%					
NC(=O)c1cc(Br)ccc1OCCOc1ccccc1 [MMV687243]	8%	8%	-2.4%	-18%					
Nc1nc2cc(-c3cncc(Oc4ccc(F)cc4)c3)ccc2[nH]1 [MMV687248]					17%	19%	-0.7%	17%	
Cn1c(=O)c2c(S(C)(=O)=O)snc2n(C)c1=O [MMV687251]					12%	2.8%	2.7%	0.4%	

Compound	Cruzain Inhibition 0’ (cruzain; [1])	Cruzain Inhibition 10’ (cruzain; [2])	TbrCatL Inhibition 0’ (TbrCatL; [1])	TbrCatL Inhibition 10’ (TbrCatL; [2])	Cruzain 0’ Inhibition (cruzain; [3])	Cruzain 10’ Inhibition (cruzain; [4])	TbrCatL 0’ Inhibition (TbrCatL; 0’ (pre-incubation time))	TbrCatL 10’ Inhibition (TbrCatL; 10’ (pre-incubation time))	also measured
CCCCc1ccc(C(=O)Nc2nccc3ccccc23)nc1 [MMV687254]					-10%	-5%	-7%	-2.6%	
CC(C)=CCC/C(C)=C\CNCCNC1C2CC3CC(C2)CC1C3 (stereo not drawn) [MMV687273]					-1.6%	2.8%	-3.2%	-4.3%	
CCc1nc2ccc(Cl)cn2c1C(=O)NCc1ccc(N2CCC(c3ccc(OC(F)(F)F)cc3)CC2)cc1 [MMV687696]					4.7%	1.8%	-4.5%	-3.6%	
O=C(NCc1cc(Cl)cc(Cl)c1)c1c(C(F)(F)F)nc2ccccn12 [MMV687699]					3.3%	7%	-1.6%	-6%	
Nc1ncnc2c1ncn2[C@@H]1O[C@H](COS(=O)(=O)NC(=O)c2ccccc2O)[C@@H](O)[C@H]1O [MMV687700]					3%	10%	3%	17%	
COc1cccc(-c2nc3c(N4CCCC4)cccc3n2CC2CCCN2)n1 (stereo not drawn) [MMV687703]					14%	11%	26%	16%	
c1ccc(Oc2ccc(-c3cc(N4CCNCC4)[nH]n3)cc2)cc1 [MMV687706]					2.4%	4%	-6%	23%	
O=C1O[C@@H](CO)CN1c1cc(F)c(C2=CCN(Cc3ccccc3)CC2)c(F)c1 [MMV687729]					-2%	6%	-0.7%	-6.5%	
CCCCOC(=O)Nc1cc2[nH]c(C3CCCCC3)nc2cc1N1CCCC1 [MMV687730]					12%	4.4%	19%	12%	
Cc1cc(OCC(=O)NCc2ccccc2)c2cc(Br)ccc2n1 [MMV687747]	6.4%	6%	2%	-0.3%					
c1ccc(C[C@@H]2CN(c3nccc(Oc4ccc(-n5ccnc5)cc4)n3)CCN2)cc1 [MMV687749]	14%	13%	6.4%	5.6%					
c1ccc(Oc2ccc(-c3cc(C4CCOCC4)[nH]n3)cc2)cc1 [MMV687762]	9%	7%	17%	12%					
Cc1cnc(N2CCN[C@@H](Cc3ccccc3)C2)nc1Oc1ccc(-n2ccnc2)cc1 [MMV687765]					4.4%	13%	5%	8.5%	
CC1(C)OB(O)c2ccc(C3=NOC(c4cc(Cl)c(F)c(Cl)c4)(C(F)(F)F)C3)cc21 (stereo not drawn) [MMV687775]	13%	-4%	-0.5%	-8%					
Cc1cc(C2=NOC(c3cc(Cl)c(F)c(Cl)c3)(C(F)(F)F)C2)ccc1C(=O)NCc1ccc2c(c1)C(C)(C)OB2O (stereo not drawn) [MMV687776]	25%	17%	-0.1%	-4.5%					
CC1(C)Cc2c(c(N3CCOCC3)nc3snc(Br)c23)CO1 [MMV687794]					8%	27%	4.7%	25%	
NCCC(O)C(=O)N[C@@H]1C[C@H](N)[C@@H](OC2O[C@H](CN)[C@@H](O)[C@H](O)[C@H]2O)[C@H](O)C1OC1O[C@H](CO)[C@@H](O)[C@H](N)[C@H]1O (stereo partly drawn) [MMV687796]									Cruzain Inhibition 0’ (cruzain; [5]): -0.8%; Cruzain Inhibition 10’ (cruzain; [6]): -3.6%; TbrCatL Inhibition 0’ (TbrCatL; [5]): -9.5%; TbrCatL Inhibition 10’ (TbrCatL; [6]): -6%
C[C@H]1COc2c(N3CCN(C)CC3)c(F)cc3c(=O)c(C(=O)O)cn1c23 [MMV687798]					4.7%	6%	-4.6%	-1.6%	
CC(C)N=c1cc2n(-c3ccc(Cl)cc3)c3ccccc3nc-2cc1Nc1ccc(Cl)cc1 [MMV687800]	23%	10%	1.1%	3%					

— publication PMC9967275, “Screening the Pathogen Box to Discover and Characterize New Cruzain and TbrCatL Inhibitors” (Pathogens, 2023)
